# Test results as given in patent publication US11078170B2 (Assembly Biosciences, Inc., priority 2017, dated 2021).
# Tested on: HBV viral production from HepAD38 cells
# Test: Activity of test compounds on viral production from HepAD38 cells (viral load by qPCR of HBV core sequence in supernatant)
# Assay type: cell-based
# Settings: Hepatitis B virus, 120 h, 5 days incubation, HBV DNA in supernatant by qPCR, top concentration 10 μM, read-out: Viral Load EC50 Activity range
# In short: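 HepAD38 cells, 50,000/well in tetracycline-free 2% FBS medium, treated 5 days at 37° C. with compound from 10 μM top concentration. HBV DNA in supernatant quantified by TaqMan qPCR of core sequence against DNA standards, relative to DMSO wells; CellTiter-Glo viability read in parallel. EC50/CC50 from four-parameter logistic fit.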
row,SMILES,EC50
1,"CN1[C@H](C(=O)Nc2ccc(F)c(Cl)c2)C[C@H](c2cc(-c3ncn(C)n3)cs2)NS1(=O)=O [HBV-CSU-326-ISO-I, Cis-N-(3-chloro-4-fluorophenyl)-2-methyl-5-(4-(1-methyl-1H-1,2,4-triazol-3-yl)thiophen-2-yl)-1,2,6-thiadiazinane-3-carboxamide 1,1-dioxide]",< 1000 nM
2,"CN1[C@@H](C(=O)Nc2ccc(F)c(Cl)c2)C[C@@H](c2cc(-c3ncn(C)n3)cs2)NS1(=O)=O [HBV-CSU-326-ISO-II, Cis-N-(3-chloro-4-fluorophenyl)-2-methyl-5-(4-(1-methyl-1H-1,2,4-triazol-3-yl)thiophen-2-yl)-1,2,6-thiadiazinane-3-carboxamide 1,1-dioxide]",> 5000 nM
3,"CN1[C@H](C(=O)Nc2ccc(F)c(Cl)c2)C[C@H](c2cc(-c3ncnn3C)cs2)NS1(=O)=O [HBV-CSU-327-ISO-I, Cis-N-(3-Chloro-4-fluorophenyl)-2-methyl-5-(4-(1-methyl-1H-1,2,4-triazol-5-yl)thiophen-2-yl)-1,2,6-thiadiazinane-3-carboxamide 1,1-dioxide]",< 1000 nM
4,"CN1[C@@H](C(=O)Nc2ccc(F)c(Cl)c2)C[C@@H](c2cc(-c3ncnn3C)cs2)NS1(=O)=O [HBV-CSU-327-ISO-II, Cis-N-(3-Chloro-4-fluorophenyl)-2-methyl-5-(4-(1-methyl-1H-1,2,4-triazol-5-yl)thiophen-2-yl)-1,2,6-thiadiazinane-3-carboxamide 1,1-dioxide]",1000 to 5000 nM
5,"CN1[C@H](C(=O)Nc2ccc(F)c(Cl)c2)C[C@H](c2cc(-c3nncn3C)cs2)NS1(=O)=O [HBV-CSU-328-ISO-I, Cis-N-(3-chloro-4-fluorophenyl)-2-methyl-5-(4-(4-methyl-4H-1,2,4-triazol-3-yl)thiophen-2-yl)-1,2,6-thiadiazinane-3-carboxamide 1,1-dioxide]",< 1000 nM
6,"CN1[C@@H](C(=O)Nc2ccc(F)c(Cl)c2)C[C@@H](c2cc(-c3nncn3C)cs2)NS1(=O)=O [HBV-CSU-328-ISO-II, Cis-N-(3-chloro-4-fluorophenyl)-2-methyl-5-(4-(4-methyl-4H-1,2,4-triazol-3-yl)thiophen-2-yl)-1,2,6-thiadiazinane-3-carboxamide 1,1-dioxide]",> 5000 nM
7,"CN1C(C(=O)Nc2ccc(F)c(Cl)c2)CC(c2cc(Cl)c(Br)s2)NS1(=O)=O (stereo not drawn) [HBV-CSU-329, Cis-5-(5-bromo-4-chlorothiophen-2-yl)-N-(3-chloro-4-fluorophenyl)-2-methyl-1,2,6-thiadiazinane-3-carboxamide 1,1-dioxide]",< 1000 nM
8,"CN1C(C(=O)Nc2ccc(F)c(Cl)c2)CC(c2cc(Br)c(Cl)s2)NS1(=O)=O (stereo not drawn) [HBV-CSU-330, Cis-5-(4-bromo-5-chlorothiophen-2-yl)-N-(3-chloro-4-fluorophenyl)-2-methyl-1,2,6-thiadiazinane-3-carboxamide 1,1-dioxide]",< 1000 nM
9,"CN1[C@H](C(=O)Nc2ccc(F)c(Cl)c2)C[C@H](c2ccc(-c3c[nH]cn3)s2)NS1(=O)=O [HBV-CSU-331-ISO-I, Cis-5-(5-(1H-imidazol-4-yl)thiophen-2-yl)-N-(3-chloro-4-fluorophenyl)-2-methyl-1,2,6-thiadiazinane-3-carboxamide 1,1-dioxide]",< 1000 nM
10,"CN1[C@@H](C(=O)Nc2ccc(F)c(Cl)c2)C[C@@H](c2ccc(-c3c[nH]cn3)s2)NS1(=O)=O [HBV-CSU-331-ISO-II, Cis-5-(5-(1H-imidazol-4-yl)thiophen-2-yl)-N-(3-chloro-4-fluorophenyl)-2-methyl-1,2,6-thiadiazinane-3-carboxamide 1,1-dioxide]",1000 to 5000 nM
11,"CN1[C@H](C(=O)Nc2ccc(F)c(Cl)c2)C[C@H](c2ncc(-c3c[nH]cn3)s2)NS1(=O)=O [HBV-CSU-333-ISO-I, 5-(5-(1H-imidazol-4-yl)thiazol-2-yl)-N-(3-chloro-4-fluorophenyl)-2-methyl-1,2,6-thiadiazinane-3-carboxamide 1,1-dioxide]",< 1000 nM
12,"CCc1sc(C2CC(C(=O)Nc3ccc(F)c(Cl)c3)N(C)S(=O)(=O)N2)cc1Br (stereo not drawn) [HBV-CSU-334, 5-(4-bromo-5-ethylthiophen-2-yl)-N-(3-chloro-4-fluorophenyl)-2-methyl-1,2,6-thiadiazinane-3-carboxamide 1,1-dioxide]",< 1000 nM
13,"Cc1cc(C2CC(C(=O)Nc3ccc(F)c(Cl)c3)N(C)S(=O)(=O)N2)sc1Br (stereo not drawn) [HBV-CSU-335, Cis-5-(5-bromo-4-methylthiophen-2-yl)-N-(3-chloro-4-fluorophenyl)-2-methyl-1,2,6-thiadiazinane-3-carboxamide 1,1-dioxide]",< 1000 nM
14,"[2H]C([2H])([2H])N1C(C(=O)Nc2ccc(F)c(Cl)c2)CC(c2ncc(Br)s2)NS1(=O)=O (stereo not drawn) [HBV-CSU-336, 5-(5-Bromothiazol-2-yl)-N-(3-chloro-4-fluorophenyl)-2-(methyl-d3)-1,2,6-thiadiazinane-3-carboxamide 1,1-dioxide]",< 1000 nM
15,"[2H]C([2H])([2H])N1[C@H](C(=O)Nc2ccc(F)c(Cl)c2)C[C@H](c2ncc(Br)s2)NS1(=O)=O [HBV-CSU-336-ISO-I, 5-(5-Bromothiazol-2-yl)-N-(3-chloro-4-fluorophenyl)-2-(methyl-d3)-1,2,6-thiadiazinane-3-carboxamide 1,1-dioxide]",< 1000 nM
16,"[2H]C([2H])([2H])N1[C@@H](C(=O)Nc2ccc(F)c(Cl)c2)C[C@@H](c2ncc(Br)s2)NS1(=O)=O [HBV-CSU-336-ISO-II, 5-(5-Bromothiazol-2-yl)-N-(3-chloro-4-fluorophenyl)-2-(methyl-d3)-1,2,6-thiadiazinane-3-carboxamide 1,1-dioxide]",1000 to 5000 nM
17,"[2H]C([2H])([2H])N1[C@H](C(=O)Nc2ccc(F)c(Cl)c2)C[C@H](c2ncc(-c3cn(C([2H])([2H])[2H])cn3)s2)NS1(=O)=O [HBV-CSU-337-ISO-I, Cis-N-(3-Chloro-4-fluorophenyl)-2-(methyl-d3)-5-(5-(1-(methyl-d3)-1H-imidazol-4-yl)thiazol-2-yl)-1,2,6-thiadiazinane-3-carboxamide 1,1-dioxide]",< 1000 nM
18,"[2H]C([2H])([2H])N1[C@H](C(=O)Nc2ccc(F)c(Cl)c2)C[C@H](c2ncc(-c3cn(C)cn3)s2)NS1(=O)=O [HBV-CSU-338-ISO-I, Cis-N-(3-Chloro-4-fluorophenyl)-2-(methyl-d3)-5-(5-(1-methyl-1H-imidazol-4-yl)thiazol-2-yl)-1,2,6-thiadiazinane-3-carboxamide 1,1-dioxide]",< 1000 nM
19,"CN1[C@H](C(=O)Nc2ccc(F)c(Cl)c2)C[C@H](c2ccc3c(c2)ncn3C)NS1(=O)=O [HBV-CSU-360-ISO-I, Cis-N-(3-chloro-4-fluorophenyl)-2-methyl-5-(1-methyl-1H-benzo[d]imidazol-5-yl)-1,2,6-thiadiazinane-3-carboxamide 1,1-dioxide]",1000 to 5000 nM
20,"CN1[C@H](C(=O)Nc2ccc(F)c(Br)c2)C[C@H](c2ncc(-c3cn(C)cn3)s2)NS1(=O)=O [HBV-CSU-369, (3S,5R)—N-(3-bromo-4-fluorophenyl)-2-methyl-5-(5-(1-methyl-1H-imidazol-4-yl)thiazol-2-yl)-1,2,6-thiadiazinane-3-carboxamide 1,1-dioxide]",< 1000 nM
21,"[2H]C([2H])([2H])N1[C@H](C(=O)Nc2ccc(F)c(Cl)c2)C[C@H](c2ccc(Br)s2)NS1(=O)=O [HBV-CSU-370-ISO-I, Cis-5-(5-bromothiophen-2-yl)-N-(3-chloro-4-fluorophenyl)-2-(methyl-d3)-1,2,6-thiadiazinane-3-carboxamide 1,1-dioxide]",< 1000 nM
